The term IC50 denotes the concentration that inhibits the measured activity by half.

Common to all, as to assay type: biochemical
One test addresses T1, Human CatG (Homo sapiens, UniProt P08311).
T1 construct: purchased Elastin Products Company (Owensville, MO, USA)
T1 sequence (P08311 21-255): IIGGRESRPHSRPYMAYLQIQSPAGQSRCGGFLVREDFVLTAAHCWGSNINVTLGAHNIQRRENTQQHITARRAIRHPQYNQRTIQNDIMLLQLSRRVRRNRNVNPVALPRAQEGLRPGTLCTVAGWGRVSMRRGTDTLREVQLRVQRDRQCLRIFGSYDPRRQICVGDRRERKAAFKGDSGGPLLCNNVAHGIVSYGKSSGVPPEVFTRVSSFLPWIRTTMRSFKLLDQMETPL
Put plainly: Direct inhibition of CatG, chromogenic substrate (S-7388) hydrolysis assay, IC50 determination. The note with it: for HS (Hill slope): Hill slope of dose-response fit; for HS (Hill slope) / IC50 / ΔY (efficacy): 100 mM NaCl; for HS (Hill slope) / ΔY (efficacy): pH 7.4; for IC50: pH 7.4 tris buffer, 37 °C, 60 nM CatG, 750 µM S-7388, ± 1 S.E., read-out: IC50; for ΔY (efficacy): ΔY = YM − YO of dose-response fit; for fold difference (loss) in CatG inhibition potency relative to NSGM 25: ratio of IC50s versus 25. As to the method: A chromogenic substrate hydrolysis assay was used to determine the direct inhibition of CatG by the NSGMs, as previously reported. To each well of a 96-well microplate containing 88 µL of 20 mM tris buffer, containing 100 mM NaCl, 2.5 mM CaCl2, 0.1% PEG 8000, and 0.05% Tween 80, 4 µL of CatG (final concentration of 60 nM) and 5 µL of H2O or NSGM (final concentration of 0–100 µM) were added. After incubating for a period of 5 min, 3 µL of CatG substrate (S-7388, final concentration of 750 µM) was added, and the residual CatG activity was obtained from the initial rate of increase of absorbance at 405 nm. The relative residual activity of CatG for each of the NSGMs, at the various concentrations, was calculated from the ratio of CatG activity in the presence and absence of NSGMs. The dose dependence curve was plotted using a logistic equation (see below) in Sigmaplot version 12 to obtain the IC50 (potency), Hill slope (HS), and efficacy (ΔY). Here, Y is the ratio of residual CatG activity in the presence of NSGMs to that in their absence, YO and YM are the minimum and maximum values of fractional residual CatG activity, respectively, IC50 is the concentration of the NSGM that inhibits CatG activity by 50%, and HS is the Hill slope. ΔY = YM − YO. Y=YO+YM−YO/1+10^logI0−logIC50HS
Figure 4 Representative IC50 profiles for CatG inhibition by NSGMs. Direct inhibition of human CatG was measured using the chromogenic substrate hydrolysis assay at pH 7.4 and 37 °C. Solid lines represent analysis using the logistic dose–response relationship (Equation (1)) to obtain the IC50, ΔY%, and HS. Errors represent ± 1 S.E.

Test [1] concerns human plasma. Put plainly: Activated partial thromboplastin time (aPTT) clotting assay. The note with it: concentration required to double the aPTT of pooled human plasma. As to the method: (§1) The impacts of NSGM 25 on activated partial thromboplastin time (aPTT) and the prothrombin time (PT) of human plasma were measured employing a standard one-stage recalcification assay at 37 °C, as previously reported. CaCl2 and thromboplastin-D were used to initiate clotting in aPTT and PT assays, respectively, in the absence and presence of NSGM 25, and the time to clot was recorded accordingly.

For test [2], the system named is human plasma. As to the kind of experiment: Prothrombin time (PT) clotting assay. As to conditions: concentration required to double the PT of pooled human plasma. As to the method:
as §1

On to `O=S(=O)(O)Oc1cc2c(c(OS(=O)(=O)O)c1)CC(OS(=O)(=O)O)C(c1ccc(OS(=O)(=O)O)c(OS(=O)(=O)O)c1)O2` (centres unmarked) [NSGM 17], for which, on Human CatG, the “HS (Hill slope)” value amounted to 3.1 ± 1.3, the half-inhibitory concentration (IC50) was 65 ± 13 µM and the “ΔY (efficacy)” value is 76 ± 7%.

For `O=c1c(OS(=O)(=O)O)c(-c2ccc(OS(=O)(=O)O)c(OS(=O)(=O)O)c2)oc2cc(OS(=O)(=O)O)cc(OCc3ccc(COc4cc(OS(=O)(=O)O)cc5oc(-c6ccc(OS(=O)(=O)O)c(OS(=O)(=O)O)c6)c(OS(=O)(=O)O)c(=O)c45)nc3)c12` [NSGM 28], on Human CatG, the “HS (Hill slope)” value is given as 0.9 ± 0.2, the IC50 was 0.18 ± 0.04 µM and the “ΔY (efficacy)” value is listed as 77 ± 5%.

For `CCOC(=O)c1c(C)oc2cc(OCc3ccccc3)c(OCCCOc3cc(OS(=O)(=O)O)cc4oc(-c5ccc(OS(=O)(=O)O)cc5)cc(=O)c34)cc12` [NSGM 30], on Human CatG, the “HS (Hill slope)” value came to 2.1 ± 0.5, the IC50 came to 18.9 ± 2.2 µM and the “ΔY (efficacy)” value is 87 ± 5%.

For `O=c1c(OS(=O)(=O)O)c(-c2ccc(OS(=O)(=O)O)c(OS(=O)(=O)O)c2)oc2cc(OS(=O)(=O)O)cc(OCCCOc3cc(OS(=O)(=O)O)cc4oc(-c5ccc(OS(=O)(=O)O)c(OS(=O)(=O)O)c5)c(OS(=O)(=O)O)c(=O)c34)c12` [NSGM 24], on Human CatG, the “HS (Hill slope)” value is recorded as 1.5 ± 0.5, the IC50 was 0.21 ± 0.04 µM, the “fold difference (loss) in CatG inhibition potency relative to NSGM 25” value is recorded as 4 fold and the “ΔY (efficacy)” value came to 94 ± 9%.

For the compound `O=c1c(OS(=O)(=O)O)c(-c2ccc(OS(=O)(=O)O)c(OS(=O)(=O)O)c2)oc2cc(OS(=O)(=O)O)cc(OCc3cccc(COc4cc(OS(=O)(=O)O)cc5oc(-c6ccc(OS(=O)(=O)O)c(OS(=O)(=O)O)c6)c(OS(=O)(=O)O)c(=O)c45)c3)c12` [NSGM 27], on Human CatG, the “HS (Hill slope)” value was found to be 0.9 ± 0.4, the IC50 was 0.15 ± 0.06 µM and the “ΔY (efficacy)” value is recorded as 77 ± 10%.

As for `O=c1cc(-c2ccc(OS(=O)(=O)O)cc2)oc2cc(OS(=O)(=O)O)cc(OCC=CCOc3cc(OS(=O)(=O)O)cc4oc(-c5ccc(OS(=O)(=O)O)cc5)cc(=O)c34)c12` [NSGM 18], at Human CatG, the “HS (Hill slope)” value is given as 1.5 ± 0.3, the IC50 amounted to 4.7 ± 0.7 µM and the “ΔY (efficacy)” value turned out to be 81 ± 7%.

For the compound `O=c1cc(-c2ccc(OS(=O)(=O)O)cc2)oc2cc(OS(=O)(=O)O)cc(OCc3cccc(COc4cc(OS(=O)(=O)O)cc5oc(-c6ccc(OS(=O)(=O)O)cc6)cc(=O)c45)c3)c12` [NSGM 21], on Human CatG, the “HS (Hill slope)” value is 1.3 ± 0.8, the concentration for half-maximal inhibition (IC50) amounted to 10.3 ± 4.8 µM and the “ΔY (efficacy)” value came out at 81 ± 7%.

In the case of `CC1CNc2c(cccc2S(=O)(=O)N[C@@H](CCCNC(=N)N)C(=O)N2CC[C@@H](C)C[C@@H]2C(=O)O)C1` (some centres unmarked) [Argatroban, argatroban, reference compound], in the test with human plasma [1], the “aPTT (EC2X)” value worked out at 0.34 µM. Further, in the test with human plasma [2], the “PT (EC2X)” value came out at 0.36 µM.

As to `O=c1cc(-c2ccc(OS(=O)(=O)O)cc2)oc2cc(OS(=O)(=O)O)cc(OCc3ccc(-c4ccc(COc5cc(OS(=O)(=O)O)cc6oc(-c7ccc(OS(=O)(=O)O)cc7)cc(=O)c56)cc4)cc3)c12` [NSGM 23], at Human CatG, the “HS (Hill slope)” value turned out to be 4.1 ± 1.0, the IC50 came to 3.4 ± 0.2 µM and the “ΔY (efficacy)” value came to 103 ± 4%.

`Cc1ccc(OCCOc2cc(OS(=O)(=O)O)cc3oc(-c4ccc(OS(=O)(=O)O)cc4)cc(=O)c23)cc1` [NSGM 16]: on Human CatG, the “HS (Hill slope)” value is recorded as 1.9 ± 0.3, the IC50 was above 100 µM and the “ΔY (efficacy)” value turned out to be 115 ± 4%.

Take `O=c1cc(-c2ccc(OS(=O)(=O)O)cc2)oc2cc(OS(=O)(=O)O)cc(OCc3ccc(COc4cc(OS(=O)(=O)O)cc5oc(-c6ccc(OS(=O)(=O)O)cc6)cc(=O)c45)cc3)c12` [NSGM 19]: on Human CatG, the “HS (Hill slope)” value is listed as 3.1 ± 1.0, the IC50 was found to be 3.3 ± 0.3 µM, the “fold difference (loss) in CatG inhibition potency relative to NSGM 25” value was 66 fold and the “ΔY (efficacy)” value is given as 82 ± 4%.

Take `COc1cc2oc(C)c(C(=O)OCCOS(=O)(=O)O)c2cc1OS(=O)(=O)O` [NSGM 3]: the IC50 at Human CatG was above 50 µM.

On to `CCOC(=O)c1c(C)oc2cc(OCc3cccc(OS(=O)(=O)O)c3)c(OS(=O)(=O)O)cc12` [NSGM 2], for which the half-maximal inhibitory concentration (IC50) on Human CatG is above 50 µM.

Consider `O=C(NC[C@H]1CN(c2ccc(N3CCOCC3=O)cc2)C(=O)O1)c1ccc(Cl)s1` [Rivaroxaban, rivaroxaban, reference compound], for which the “aPTT (EC2X)” value in the test on human plasma [1] is recorded as 0.12 µM. Also, the “PT (EC2X)” value with human plasma [2] was 0.15 µM.

As for `O=c1cc(-c2ccc(OS(=O)(=O)O)cc2)oc2cc(OS(=O)(=O)O)cc(OCc3ccc(COc4cc(OS(=O)(=O)O)cc5oc(-c6ccc(OS(=O)(=O)O)cc6)cc(=O)c45)nc3)c12` [NSGM 22], on Human CatG, the “HS (Hill slope)” value is listed as 1.2 ± 0.2, the IC50 amounted to 1.3 ± 0.2 µM and the “ΔY (efficacy)” value came to 105 ± 7%.

The values above are taken from PMC10216581, “Homogeneous, Synthetic, Non-Saccharide Glycosaminoglycan Mimetics as Potent Inhibitors of Human Cathepsin G” (Biomolecules, 2023).
